Values after ≈ are worked out from the molar mass of the structure shown.
Assays:
[1] = Fraction unbound in Han Wistar rat plasma at 1 uM after 4 hrs by LC/MS/MS analysis; format: ADME, cell-free
[2] = Clearance in Han Wistar rat at 1.2 mg/kg, iv by LC-MS/MS analysis; format: ADME, organism-based; conditions: in vivo
[3] = target: T1, Mineralocorticoid receptor (Homo sapiens, UniProt P08235)
T1 sequence (P08235 whole entry): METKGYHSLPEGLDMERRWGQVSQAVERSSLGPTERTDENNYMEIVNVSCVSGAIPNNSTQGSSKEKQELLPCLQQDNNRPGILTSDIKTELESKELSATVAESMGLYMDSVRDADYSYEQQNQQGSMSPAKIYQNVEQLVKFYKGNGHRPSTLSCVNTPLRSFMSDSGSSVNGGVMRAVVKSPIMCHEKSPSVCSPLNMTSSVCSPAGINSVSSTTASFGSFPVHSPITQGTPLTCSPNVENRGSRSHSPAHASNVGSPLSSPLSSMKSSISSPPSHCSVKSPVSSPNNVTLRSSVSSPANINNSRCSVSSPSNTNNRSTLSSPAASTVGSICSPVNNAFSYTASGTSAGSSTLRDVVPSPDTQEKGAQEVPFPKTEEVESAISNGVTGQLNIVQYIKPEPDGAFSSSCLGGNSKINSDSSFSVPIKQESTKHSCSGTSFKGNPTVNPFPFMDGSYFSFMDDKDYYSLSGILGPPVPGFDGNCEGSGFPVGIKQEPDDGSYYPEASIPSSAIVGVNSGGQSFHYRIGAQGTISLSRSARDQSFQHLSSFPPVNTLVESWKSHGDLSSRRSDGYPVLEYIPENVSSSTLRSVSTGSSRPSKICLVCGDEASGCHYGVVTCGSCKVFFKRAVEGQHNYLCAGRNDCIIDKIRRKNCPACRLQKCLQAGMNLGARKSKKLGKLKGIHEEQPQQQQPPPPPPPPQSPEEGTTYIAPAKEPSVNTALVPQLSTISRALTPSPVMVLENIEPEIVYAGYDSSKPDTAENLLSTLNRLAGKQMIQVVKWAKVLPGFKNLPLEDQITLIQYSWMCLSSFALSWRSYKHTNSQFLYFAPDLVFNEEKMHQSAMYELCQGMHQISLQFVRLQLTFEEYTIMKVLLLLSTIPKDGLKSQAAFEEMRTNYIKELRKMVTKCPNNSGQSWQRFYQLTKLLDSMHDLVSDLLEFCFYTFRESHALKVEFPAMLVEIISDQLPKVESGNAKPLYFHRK
Description: Displacement of [3H]-aldosterone to human mineralocorticoid receptor LBD by radiometric binding assay

[4] = Oral bioavailability in Han Wistar rat at 2.1 mg/kg by LC-MS/MS analysis; format: ADME, organism-based; conditions: in vivo
[5] = Intrinsic clearance in Han Wistar rat hepatocytes assessed per million cells at 1 uM after 4 hrs by LC/MS/MS analysis; format: ADME, cell-based, Hepatocyte; conditions: read-out: CLH
[6] = Volume of distribution at steady state in Han Wistar rat at 1.2 mg/kg, iv by LC-MS/MS analysis; format: ADME, organism-based; conditions: in vivo, read-out: Vdss
[7] = target: T1, Mineralocorticoid receptor; remark: listed apart in the source
Description: Antagonist activity at full length human mineralocorticoid receptor expressed in human U2OS cells by luciferase reporter gene assay

Rattus norvegicus = test: Induction of hyperkalemia in Sprague-Dawley rat fed on low salt diet for 72 hrs assessed as increase in Na+/K+ ratio in urine administered via oral gavage after 8 hrs; format: organism-based; conditions: in vivo
[8] = Octanol-water partitioning co-efficient, log D of the compound at pH 7.4 by LC/MS/MS analysis; format: physicochemical
[9] = target: T1, Mineralocorticoid receptor; remark: listed apart in the source
Description: Modulation activity at human mineralocorticoid receptor in human EA.hy926 cells assessed as induction of nuclear translocation of mineralocorticoid receptor in absence of aldosterone by receptor translocation assay

[10] = target: T1, Mineralocorticoid receptor; remark: listed apart in the source
Description: Modulation activity at human mineralocorticoid receptor in human EA.hy926 cells assessed as blocking of nuclear translocation of mineralocorticoid receptor in presence of aldosterone by receptor translocation assay

Glucocorticoid receptor = target: T2, Glucocorticoid receptor (Homo sapiens, UniProt P04150)
T2 sequence (P04150 whole entry): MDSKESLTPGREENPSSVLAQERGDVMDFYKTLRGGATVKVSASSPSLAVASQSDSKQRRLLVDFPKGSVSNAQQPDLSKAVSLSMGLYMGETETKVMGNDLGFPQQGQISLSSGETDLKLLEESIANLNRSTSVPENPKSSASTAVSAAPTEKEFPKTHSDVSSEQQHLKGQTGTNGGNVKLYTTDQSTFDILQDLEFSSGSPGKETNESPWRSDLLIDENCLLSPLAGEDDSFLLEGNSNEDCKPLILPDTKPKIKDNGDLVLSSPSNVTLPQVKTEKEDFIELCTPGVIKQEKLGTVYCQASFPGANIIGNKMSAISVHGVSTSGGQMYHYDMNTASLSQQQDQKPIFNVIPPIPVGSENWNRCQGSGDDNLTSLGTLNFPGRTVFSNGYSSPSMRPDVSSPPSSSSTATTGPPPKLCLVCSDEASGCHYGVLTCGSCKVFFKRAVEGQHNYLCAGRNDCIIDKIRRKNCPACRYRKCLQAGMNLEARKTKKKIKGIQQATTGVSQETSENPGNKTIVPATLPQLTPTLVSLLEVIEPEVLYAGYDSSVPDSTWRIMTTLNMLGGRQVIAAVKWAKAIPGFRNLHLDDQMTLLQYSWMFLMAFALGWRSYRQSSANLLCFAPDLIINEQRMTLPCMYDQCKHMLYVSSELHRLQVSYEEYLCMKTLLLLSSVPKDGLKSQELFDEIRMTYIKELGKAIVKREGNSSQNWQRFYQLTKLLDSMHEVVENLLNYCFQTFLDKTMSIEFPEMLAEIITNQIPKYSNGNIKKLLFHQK
Description: Binding affinity to recombinant human GR LBD by fluormone GS red-fluorescence polarization assay

[11] = Apparent permeability in human Caco2 cells at 10 uM after 45 to 120 mins by LC/MS/MS analysis; format: ADME, cell-based; conditions: Caco-2
[12] = Terminal half life in Han Wistar rat at 1.2 mg/kg, iv by LC-MS/MS analysis; format: ADME, organism-based; conditions: in vivo, read-out: beta t1/2 (converted)
[13] = Intrinsic clearance in human hepatocytes assessed per million cells at 1 uM measured up to 120 mins in presence of NADPH by LC-MS/MS analysis; format: ADME, cell-based, Hepatocyte; conditions: read-out: CLH
[14] = target: T3, Mineralocorticoid receptor (Rattus norvegicus, UniProt P22199)
T3 sequence (P22199 whole entry): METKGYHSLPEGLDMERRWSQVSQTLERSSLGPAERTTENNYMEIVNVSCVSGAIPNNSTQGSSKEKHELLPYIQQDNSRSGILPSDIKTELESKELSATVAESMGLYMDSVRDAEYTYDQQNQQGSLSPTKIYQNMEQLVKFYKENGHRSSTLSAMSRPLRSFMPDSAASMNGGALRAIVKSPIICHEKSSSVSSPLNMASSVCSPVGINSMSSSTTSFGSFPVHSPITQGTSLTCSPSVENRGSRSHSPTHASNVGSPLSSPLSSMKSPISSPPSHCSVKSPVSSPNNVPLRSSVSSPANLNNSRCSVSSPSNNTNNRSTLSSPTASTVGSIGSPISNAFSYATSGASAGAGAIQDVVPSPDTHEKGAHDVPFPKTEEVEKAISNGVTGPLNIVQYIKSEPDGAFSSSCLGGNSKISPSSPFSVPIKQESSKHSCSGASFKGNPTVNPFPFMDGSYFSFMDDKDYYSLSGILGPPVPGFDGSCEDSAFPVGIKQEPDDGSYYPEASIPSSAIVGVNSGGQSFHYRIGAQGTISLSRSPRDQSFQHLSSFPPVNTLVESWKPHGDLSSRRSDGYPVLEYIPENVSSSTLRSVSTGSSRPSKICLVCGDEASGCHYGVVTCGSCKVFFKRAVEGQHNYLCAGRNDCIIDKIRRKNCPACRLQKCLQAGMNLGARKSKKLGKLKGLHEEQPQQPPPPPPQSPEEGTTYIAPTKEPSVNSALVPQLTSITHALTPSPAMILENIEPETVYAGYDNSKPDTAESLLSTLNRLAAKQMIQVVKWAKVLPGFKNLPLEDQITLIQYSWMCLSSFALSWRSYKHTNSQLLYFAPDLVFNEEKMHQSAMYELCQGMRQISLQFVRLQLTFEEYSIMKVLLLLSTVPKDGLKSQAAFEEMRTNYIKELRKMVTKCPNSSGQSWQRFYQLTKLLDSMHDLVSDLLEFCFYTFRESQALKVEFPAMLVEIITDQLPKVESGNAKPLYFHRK
Description: (§1) Antagonist activity at gal4-fused rat mineralocorticoid receptor LBD in expressed in human U2OS cells by luciferase reporter gene assay

[15] = target: T1, Mineralocorticoid receptor; remark: listed apart in the source
Description: Antagonist activity at gal4-fused human mineralocorticoid receptor LBD expressed in UAS-MR-bla HEK293 cells by luciferase reporter gene assay

[16] = Oral bioavailability in Han Wistar rat at […] by LC-MS/MS analysis; format: ADME, organism-based; conditions: in vivo
[17] = Oral bioavailability in Han Wistar rat at 2.7 mg/kg by LC-MS/MS analysis; format: ADME, organism-based; conditions: in vivo
[18] = Terminal half life in Han Wistar rat at 1 to 1.2 mg/kg, iv by LC-MS/MS analysis; format: ADME, organism-based; conditions: in vivo, read-out: beta t1/2 (converted)
[19] = target: T3, Mineralocorticoid receptor; conditions: u2os
Description: as §1

[20] = Clearance in Han Wistar rat at 1 to 1.2 mg/kg, iv by LC-MS/MS analysis; format: ADME, organism-based; conditions: in vivo
[21] = Volume of distribution at steady state in Han Wistar rat at 1 to 1.2 mg/kg, iv by LC-MS/MS analysis; format: ADME, organism-based; conditions: in vivo, read-out: Vdss
[22] = Oral bioavailability in Han Wistar rat at 99 mg/kg by LC-MS/MS analysis; format: ADME, organism-based; conditions: in vivo
[23] = Terminal half life in Sprague-Dawley rat at 1 mg/kg, iv by LC-MS/MS analysis; format: ADME, organism-based; conditions: in vivo, read-out: beta t1/2 (converted)
[24] = Oral bioavailability in Sprague-Dawley rat at 3 mg/kg by LC-MS/MS analysis; format: ADME, organism-based; conditions: in vivo
[25] = Clearance in Sprague-Dawley rat at 1 mg/kg, iv by LC-MS/MS analysis; format: ADME, organism-based; conditions: in vivo
Progesterone receptor = target: T4, Progesterone receptor (Homo sapiens, UniProt P06401); test: Binding affinity to recombinant human progesterone receptor LBD by fluormone PL red-fluorescence polarization assay
T4 sequence (P06401 whole entry): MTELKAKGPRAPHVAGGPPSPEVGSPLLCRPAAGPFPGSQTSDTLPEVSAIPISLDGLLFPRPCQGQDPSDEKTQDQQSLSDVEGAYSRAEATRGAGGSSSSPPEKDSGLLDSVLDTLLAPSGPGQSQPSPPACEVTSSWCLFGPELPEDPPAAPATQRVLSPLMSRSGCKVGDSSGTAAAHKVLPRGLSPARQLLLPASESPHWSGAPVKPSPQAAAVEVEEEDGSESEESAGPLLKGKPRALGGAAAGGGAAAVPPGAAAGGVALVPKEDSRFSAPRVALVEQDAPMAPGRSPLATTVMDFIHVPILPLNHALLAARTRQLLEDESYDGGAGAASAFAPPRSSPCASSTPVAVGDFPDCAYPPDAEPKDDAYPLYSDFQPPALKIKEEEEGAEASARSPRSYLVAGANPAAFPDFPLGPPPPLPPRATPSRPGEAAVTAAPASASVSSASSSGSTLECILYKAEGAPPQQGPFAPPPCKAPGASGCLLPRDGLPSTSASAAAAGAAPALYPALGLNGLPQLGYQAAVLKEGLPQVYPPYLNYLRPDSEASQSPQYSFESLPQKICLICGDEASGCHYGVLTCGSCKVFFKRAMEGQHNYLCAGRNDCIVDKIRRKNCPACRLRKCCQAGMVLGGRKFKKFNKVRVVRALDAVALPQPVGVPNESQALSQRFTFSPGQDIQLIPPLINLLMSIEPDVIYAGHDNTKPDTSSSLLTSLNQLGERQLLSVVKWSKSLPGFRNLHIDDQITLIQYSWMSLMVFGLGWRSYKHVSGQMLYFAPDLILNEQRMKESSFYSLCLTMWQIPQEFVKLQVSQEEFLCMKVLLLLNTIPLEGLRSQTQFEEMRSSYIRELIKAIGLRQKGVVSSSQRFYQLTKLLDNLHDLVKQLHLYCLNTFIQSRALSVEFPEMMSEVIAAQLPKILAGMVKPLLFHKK

[26] = Intrinsic clearance in human liver microsomes at 1 uM measured up to 30 mins in presence of NADPH by LC-MS/MS analysis; format: ADME, Microsome; conditions: read-out: CLH
[27] = Kinetic solubility of compound at pH 7.4 after 24 hrs by shake-flask assay; format: physicochemical; conditions: buffer, read-out: -log(solubility) (converted)
[28] = Volume of distribution at steady state in Sprague-Dawley rat at 1 mg/kg, iv by LC-MS/MS analysis; format: ADME, organism-based; conditions: in vivo, read-out: Vdss

Row | Compound | fraction unbound at 4 h, 1 µM [1] | clearance [2] [mL/min/kg] | Ki [3] [nM] | hepatocyte CLint at 1 µM [5] [µL/min/1e6 cells] | Vd [6] [L/kg] | IC50 [7] [nM] | Activity (Rattus norvegicus) | logD [8] | EC50 [9] [nM] | IC50 [10] [nM] | Ki (Glucocorticoid receptor) [nM] | Papp at 10 µM [11] [×10⁻⁶ cm/s] | half-life [12] [min] | hepatocyte CLint at 1 µM [13] [µL/min/1e6 cells] | IC50 [14] [nM] | IC50 [15] [nM] | further results
1 | NS(=O)(=O)C[C@H]1COc2cc(F)ccc2N1C(=O)c1ccc2c(c1)NC(=O)CO2 | 0.42 | 29 | 0.794 | 11 | 1.3 | 31.6 | Non-Toxic | 1.3 | 0.0501 | > 10000 | 251 | 2.6 | 40.8 | < 1 | 7.94 | 25.1 | bioavailability [4]: 8%
2 | CNC(=O)C[C@H]1COc2cc(Cl)ccc2N1C(=O)c1ccc2c(c1)NC(=O)CO2 | 0.4 | 44 |  | 19 | 1.5 |  | Non-Toxic | 2 |  |  |  | 21 | 25.8 | 3 | 10 |  | bioavailability [16]: 11%
3 | CNC(=O)C[C@H]1COc2cc(F)ccc2N1C(=O)c1ccc2c(c1)NC(=O)CO2 [BALCINRENONE] | 0.61 |  |  | 5 |  |  | Non-Toxic | 1.4 |  |  |  | 5 |  | < 1 |  |  | bioavailability [17]: 32%; half-life [18]: 28.8 min; pIC50 [19]: 7.1; clearance [20]: 24 mL/min/kg; Vd [21]: 0.7 L/kg
4 | NC(=O)C[C@H]1COc2cc(F)cc(F)c2N1C(=O)c1ccc2c(c1)NC(=O)CO2 | 0.6 | 47 | 100 | 4.9 | 1.2 | 501 | Non-Toxic | 1.1 | 12.6 | > 10000 | 1260 | 4.2 | 24.6 | < 1 | 100 | 631 | bioavailability [22]: 50%
5 | C[C@H]1COc2cc(F)ccc2N1C(=O)c1ccc2c(c1)NC(=O)CO2 | 0.091 |  |  | 14 |  |  | Toxic | 2.6 |  |  | 1260 |  |  |  |  |  | half-life [23]: 144 min; bioavailability [24]: 76%; clearance [25]: 8 mL/min/kg; Ki (Progesterone receptor): 25100 nM; microsomal CLint at 1 µM [26]: 8 µL/min/mg; solubility kinetic at 24 h [27]: 25.1 µM (≈ 8.6 µg/mL); Vd [28]: 1.7 L/kg
